Assay results reported in article PMC6095626, “Screening of the Pathogen Box for inhibitors with dual efficacy against Giardia lamblia and Cryptosporidium parvum” (PLoS Neglected Tropical Diseases, 2018).

What was measured:
[1] = test system: G. lamblia trophozoites (luciferase expressing, WBC6); experiment: microbe, parasite or virus in culture; format: cell-based, Giardia lamblia; details: for Giardia (16 uM) Mean % inhibition: initial Pathogen Box screen, single concentration 16 µM, inhibition compared to DMSO wells
Method in brief: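 Incubation ran 24 h at 37 °C under anaerobic conditions, with compound added in equal volume to trophozoites (WBC6, luciferase-expressing, 250,000 cells/mL). Bioluminescence was the read-out, cross-checked by MOXI Z counts on a duplicate plate; metronidazole served as control (1:2 dilutions from 40 μM).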

[2] = test system: C. parvum (UGA1 Nluc expressing strain in HCT-8 cells); experiment: microbe, parasite or virus in culture; format: cell-based, Cryptosporidium parvum; details: for Crypto (10 uM) Mean % inhibition: initial Pathogen Box screen, single concentration 10 µM, inhibition compared to DMSO wells
Method in brief: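 Parasite growth quantified by NanoLuc luminescence from lysed infected HCT-8 cells, with EC50 fitted from dose curves. Compounds, single-dose 10 μM or serially diluted, were added to confluent 48 h monolayers before infection with bleached UGA1 Nluc oocysts.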

| Compound | Giardia (16 uM) Mean % inhibition [1] | Crypto (10 uM) Mean % inhibition [2] | G. lamblia inhibition of parasite growth in the initial screen ([1]; 16 μM, 24 hours) | inhibition at 16 µM ([1]; Giardia duodenalis, read-out: Giardia (16 uM) Mean % inhibition) [%] | inhibition at 10 µM ([2]; Cryptosporidium parvum, HCT-8, read-out: Crypto (10 uM) Mean % inhibition) [%] |
| --- | --- | --- | --- | --- | --- |
| O=C(NCc1ccoc1)N1CCN(Cc2ccc3c(c2)OCO3)CC1 [MMV688553] | 50% | 56% | – | – | – |
| c1ccc(Oc2ccc(-c3cncc(-c4ccc5[nH]ccc5c4)n3)cc2)cc1 [MMV688178] | X* (Mean or standard deviation are negative but not significantly different from the control to be a growth promoter) | 59% | – | – | – |
| COc1ccc(-c2cnc3ccc(NCc4ccc(S(N)(=O)=O)cc4)nn23)cn1 [MMV010545] | X* (Mean or standard deviation are negative but not significantly different from the control to be a growth promoter) | X* (Mean or standard deviation are negative but not significantly different from the control to be a growth promoter) | – | – | – |
| Cc1nc2ccccn2c1C(=O)NCc1ccc(Cl)cc1 [MMV012074] | 14% | 57% | – | – | – |
| c1coc(CNc2nc(N3CCCCC3)nc3ccccc23)c1 [MMV676401] | 76% | 48% | – | – | – |
| CO[C@@H]1CN(c2ccc(C#CC3(O)CN4CCC3CC4)c(Cc3ccccc3)n2)C[C@H]1O (stereo partly shown) [MMV688415] | X* (Mean or standard deviation are negative but not significantly different from the control to be a growth promoter) | X* (Mean or standard deviation are negative but not significantly different from the control to be a growth promoter) | – | – | – |
| Clc1cccc(CO[C@H]2CCc3ccccc3[C@@H]2n2ccnn2)c1 [MMV676159] | 30% | X* (Mean or standard deviation are negative but not significantly different from the control to be a growth promoter) | – | – | – |
| O=C(NC1CC1)c1ccc(N2CCOc3ccc(Cl)cc32)s1 [MMV020537] | 4.66% | 55% | – | – | – |
| COc1cc(Br)cc2cc(C(=O)Nc3cccc(C(F)(F)F)c3)c(=O)oc12 [MMV688891] | 7.41% | 51% | – | – | – |
| CCOC(=O)c1cc(-c2csc(Nc3c(C)cc(C)cc3C)n2)on1 [MMV676461] | 31% | 76% | – | – | – |
| O=C(Nc1ccccc1)c1ccc(-c2cc3ccncc3cc2OC2CCNCC2)s1 [MMV024035] | 66% | 27% | – | – | – |
| Cc1cc2ccccc2n1CC(=O)N1CC(C(=O)N2CCCCC2)Oc2ccccc21 (stereo not shown) [MMV020520] | 6.36% | 68% | – | – | – |
| COc1cccc(CC(=O)N2CCC(n3c(C)nc4ccc(F)cc43)CC2)c1 [MMV020081] | X* (Mean or standard deviation are negative but not significantly different from the control to be a growth promoter) | X* (Mean or standard deviation are negative but not significantly different from the control to be a growth promoter) | – | – | – |
| O=C(Nc1cccc(-c2ccc(NCCCN3CCCC3)nc2)c1)c1ccccc1 [MMV023953] | 82% | X* (Mean or standard deviation are negative but not significantly different from the control to be a growth promoter) | – | – | – |
| O=C1[C@@H](Oc2ccccc2)[C@@H](c2ccc(Cl)cc2)N1CCn1cnc2c(NCc3ccccc3)ncnc21 [MMV688352] | 41% | X* (Mean or standard deviation are negative but not significantly different from the control to be a growth promoter) | – | – | – |
| C[C@H](C(N)=O)N1CCCC[C@@H]1c1ccc(OCc2cccc(F)c2)cc1 [MMV676270] | 20% | 6.67% | – | – | – |
| Nc1ncc(-c2cn[nH]c2)cc1-c1nc2cc(Cl)cnc2[nH]1 [MMV023370] | 38% | X* (Mean or standard deviation are negative but not significantly different from the control to be a growth promoter) | – | – | – |

| Compound | Giardia (16 uM) Mean % inhibition [1] | Crypto (10 uM) Mean % inhibition [2] | G. lamblia inhibition of parasite growth in the initial screen ([1]; 16 μM, 24 hours) | inhibition at 16 µM ([1]; Giardia duodenalis, read-out: Giardia (16 uM) Mean % inhibition) [%] | inhibition at 10 µM ([2]; Cryptosporidium parvum, HCT-8, read-out: Crypto (10 uM) Mean % inhibition) [%] |
| --- | --- | --- | --- | --- | --- |
| Nc1ncnc2c1c(-c1cnc3ccccc3c1)nn2CC1CCNCC1 [MMV688411] | X* (Mean or standard deviation are negative but not significantly different from the control to be a growth promoter) | X* (Mean or standard deviation are negative but not significantly different from the control to be a growth promoter) | – | – | – |
| CC(C)(C)OC(=O)N1CCC(Cn2nc(-c3cnc4ccccc4c3)c3c(N)ncnc32)CC1 [MMV688364] | 56% | X* (Mean or standard deviation are negative but not significantly different from the control to be a growth promoter) | – | – | – |
| Cn1c(=O)c2c(S(C)(=O)=O)snc2n(C)c1=O [MMV687251] | 7.44% | 76% | – | – | – |
| N#Cc1nc(-c2ccccc2F)oc1NCCc1ccccc1 [MMV676384] | 21% | 40% | – | – | – |
| Cc1ccc2[nH]c(C3CCCNC3)c(-c3ccncc3)c2c1 (stereo not shown) [MMV024311] | 22% | 56% | – | – | – |
| O=C(CN1CCOCC1)Nc1ccc2ncnc(Nc3ccc(OCc4cccc(F)c4)c(Cl)c3)c2c1 [MMV688274] | 26% | 47% | – | – | – |
| COc1ccc(C2=NN(C3CCCCCC3)C(=O)C2(C)C)cc1OCCCCOc1ccc(-c2nn[nH]n2)cc1 [MMV690028] | 70% | 61% | – | – | – |
| O=C(C1CCN(c2nnc(-n3cccc3)s2)CC1)N1CCC(Cc2ccccc2)CC1 [MMV676478] | 9% | X* (Mean or standard deviation are negative but not significantly different from the control to be a growth promoter) | – | – | – |
| O[C@@H](c1cc(C(F)(F)F)nc2c(C(F)(F)F)cccc12)[C@H]1CCCCN1 [MMV000016] | 16% | 77% | – | – | – |
| CC1CC1C(=O)NC1CCN(CC2(c3ccccc3)CCCCC2)CC1 (stereo not shown) [MMV020120] | 2.27% | 66% | – | – | – |
| Cc1cc(C(=O)Nc2ccc(-c3ccccc3)cc2)no1 [MMV020152] | 43% | X* (Mean or standard deviation are negative but not significantly different from the control to be a growth promoter) | – | – | – |
| N=C(N)c1ccc(OCCCCCOc2ccc(C(=N)N)cc2)cc1 [MMV000062, pentamidine, reference compound] | – | – | did not show up in the screen | 9 | 50 |
| Cc1cc(=O)[nH]c(-n2nc(C)cc2C)n1 [MMV393995] | X* (Mean or standard deviation are negative but not significantly different from the control to be a growth promoter) | 86% | – | – | – |
| Nc1ncc(Br)cc1-c1nc2cc(Cl)cnc2[nH]1 [MMV676358] | 90% | X* (Mean or standard deviation are negative but not significantly different from the control to be a growth promoter) | – | – | – |
| CCC(Sc1nc2ccccc2o1)C(=O)Nc1nnc(C)s1 (stereo not shown) [MMV611037] | 46% | X* (Mean or standard deviation are negative but not significantly different from the control to be a growth promoter) | – | – | – |
| Cc1cccnc1NC(=O)c1cccc(OCc2c(C)noc2C)c1 [MMV688793] | 45% | 63% | – | – | – |
